The record followed here is patent EP0771196B1, “EXCITATORY AMINO ACID RECEPTOR ANTAGONISTS” (ELI LILLY AND COMPANY, priority 1994, dated 1996).

One test has as its system metabotropic glutamate receptors. The experiment in a line: Displacement of 1S,3R-ACPD-sensitive [3H]glutamate binding to rat brain cell membranes. As to conditions: crude membranes of rat forebrain; 10 µM compound. As to the method: The binding of [^3H]glutamate was conducted with crude membranes of rat forebrain as described by Schoepp and True. Schoepp and True, Neuroscience Lett., 145, 100-104 (1992) and True and Schoepp, Society for Neuroscience Abstracts, 19, 470 (1993). IC50 values for the inhibition of [^3H]glutamate binding, or the percent displacement of [^3H]glutamate binding at a 10 µM concentration, of the formula I compound, is shown in Table II.
Take `NC(Cc1ccccc1)(C(=O)O)C1CC1C(=O)O` (stereo not drawn) [Example 1, 2SR- and 2RS-2-amino-2-(1SR,2SR-2-carboxycyclopropan-1-yl)-3-phenylpropanoic acid]: the “ACPD-Sensitive [^3H]Glutamate Binding % Displacement at 10 µM” value is listed as “(61%)”.

The test is the same for the next values; noted with them: crude membranes of rat forebrain; inhibition of [3H]glutamate binding.
Consider `NC(CC1CCCCC1)(C(=O)O)[C@H]1C[C@@H]1C(=O)O` (mixture of isomers) [Example 62, 2SR- and 2RS-2-amino-2-(1SR,2SR-2-carboxycyclopropan-1-yl)-3-cyclohexylpropanoic acid], for which the IC50 is 230 nM.

The compound `NC(CCc1cc(Cl)cc(Cl)c1)(C(=O)O)[C@H]1C[C@@H]1C(=O)O` (mixture of isomers) [Example 75, 2SR- and 2RS-2-amino-2-(1SR,2SR-2carboxycyclopropan-1-yl)-4-(3,5-dichlorophenyl)butanoic acid] had a 50% inhibitory concentration (IC50) of 25 nM.

With `NC(CCc1cccc(-c2ccccc2)c1)(C(=O)O)[C@H]1C[C@@H]1C(=O)O` (mixture of isomers) [Example 76, 2SR- and 2RS-2-amino-2-(1SR,2SR-2-carboxycyclopropan-1-yl)-4-(3-biphenyl)butanoic acid], the IC50 was 510 nM.

In turn, `NC(CCc1ccc(F)cc1F)(C(=O)O)[C@H]1C[C@@H]1C(=O)O` (mixture of isomers) [Example 77, 2SR- and 2RS-2-amino-2-(1SR,2SR-2-carboxycyclopropan-1-yl)-4-(2,4-difluorophenyl)butanoic acid] registered a half-maximal inhibitory concentration (IC50) of 60 nM.

Take `NC(CCc1ccc(F)c(F)c1)(C(=O)O)[C@H]1C[C@@H]1C(=O)O` (mixture of isomers) [Example 78, 2SR- and 2RS-2-amino-2-(1SR,2SR-2-carboxycyclopropan-1-yl)-4-(3,4-difluorophenyl)butanoic acid]: the half-maximal inhibitory concentration (IC50) was 37 nM.

The compound `NC(CCc1cccc(C(=O)O)c1)(C(=O)O)[C@H]1C[C@@H]1C(=O)O` (mixture of isomers) [Example 79, 2SR- and 2RS-2-amino-2-(1SR,2SR-2-carboxycyclopropan-1-yl)-4-(3-carboxyphenyl)butanoic acid] registered an IC50 of 49 nM.

`NC(CCc1ccc(C(=O)O)cc1)(C(=O)O)[C@H]1C[C@@H]1C(=O)O` (mixture of isomers) [Example 80, 2SR- and 2RS-2-amino-2-(1SR,2SR-2-carboxycyclopropan-1-yl)-4-(4-carboxyphenyl)butanoic acid] displayed an IC50 of 370 nM.

Compound `NC(CCc1ccc(Br)cc1)(C(=O)O)[C@H]1C[C@@H]1C(=O)O` (mixture of isomers) [Example 82, 2SR- and 2RS-2-amino-2-(1SR,2SR-2-carboxycyclopropan-1-yl)-4-(4-bromophenyl)butanoic acid] showed a 50% inhibitory concentration (IC50) of 680 nM.

`NC(CCC1C2CCCC1CCC2)(C(=O)O)[C@H]1C[C@@H]1C(=O)O` (mixture of isomers) [Example 83, 2SR- and 2RS-2-amino-2-(1SR,2SR-2-carboxycyclopropan-1-yl)-4-(9-bicyclo[3.3.1]nonanyl)butanoic acid]: the IC50 was 2600 nM.

As to `NC(CCc1ccccc1Oc1ccccc1)(C(=O)O)[C@H]1C[C@@H]1C(=O)O` (mixture of isomers) [Example 84, 2SR- and 2RS-2-amino-2-(1SR,2SR-2-carboxycyclopropan-1-yl)-4-(2-phenoxyphenyl)butanoic acid], the IC50 was found to be 360 nM.

Turning to `NC(Cc1cccc2c1Oc1ccccc1C2)(C(=O)O)[C@H]1C[C@@H]1C(=O)O` (mixture of isomers) [Example 35, 2SR- and 2RS-2-amino-2-(1SR,2SR-2-carboxycyclopropan-1-yl)-3-(dibenzopyran-4-yl)propanoic acid], the concentration for half-maximal inhibition (IC50) turned out to be 9 nM.

As to `NC(CCc1ccccc1)(C(=O)O)C1CC1C(=O)O` (stereo not drawn) [Example 2, 2SR- and 2RS-2-amino-2-(1SR,2SR-2-carboxycyclopropan-1-yl)-4-phenylbutanoic acid], the IC50 turned out to be 320 nM.

The compound `NC(CCCc1ccccc1)(C(=O)O)C1CC1C(=O)O` (stereo not drawn) [Example 3, 2SR- and 2RS-2-amino-2-(1SR,2SR-2-carboxycyclopropan-1-yl)-5-phenylpentanoic acid] yielded an IC50 of 630 nM.

`NC(CCCCc1ccccc1)(C(=O)O)C1CC1C(=O)O` (stereo not drawn) [Example 4, 2SR- and 2RS-2-amino-2-(1SR,2SR-2-carboxycyclopropan-1-yl)-6-phenylhexanoic acid] registered an IC50 of 2300 nM.

Consider `NC(CC(c1ccccc1)c1ccccc1)(C(=O)O)C1CC1C(=O)O` (stereo not drawn) [Example 5, 2SR- and 2RS-2-amino-2-(1SR,2SR-2-carboxycyclopropan-1-yl)-4,4-diphenylbutanoic acid], for which the 50% inhibitory concentration (IC50) stood at 76 nM.

For the compound `NC(CCC(c1ccccc1)c1ccccc1)(C(=O)O)C1CC1C(=O)O` (stereo not drawn) [Example 6, 2SR- and 2RS-2-amino-2-(1SR,2SR-2-carboxycyclopropan-1-yl)-5,5-diphenylpentanoic acid], the 50% inhibitory concentration (IC50) turned out to be 7100 nM.

`NC(CCCC(c1ccccc1)c1ccccc1)(C(=O)O)C1CC1C(=O)O` (stereo not drawn) [Example 7, 2SR- and 2RS-2-amino-2-(1SR,2SR-2-carboxycyclopropan-1-yl)-6,6-diphenylhexanoic acid]: the half-inhibitory concentration (IC50) amounted to 7000 nM.

For `CC(N)(C(=O)O)C1CC1C(=O)O` (stereo not drawn) [Example 8, 2SR- and 2RS-2-amino-2-(1SR,2SR-2-carboxycyclopropan-1-yl)propanoic acid, reference compound], the half-inhibitory concentration (IC50) worked out at 6200 nM.

In turn, `CCC(N)(C(=O)O)C1CC1C(=O)O` (stereo not drawn) [Example 9, 2SR- and 2RS-2-amino-2-(1SR,2SR-2-carboxycyclopropan-1-yl)butanoic acid] gave an IC50 of 2200 nM.

`CCCC(N)(C(=O)O)C1CC1C(=O)O` (stereo not drawn) [Example 10, 2SR- and 2RS-2-amino-2-(1SR,2SR-2-carboxycyclopropan-1-yl)pentanoic acid] returned a half-inhibitory concentration (IC50) of 2100 nM.

As for `CCCCC(N)(C(=O)O)C1CC1C(=O)O` (stereo not drawn) [Example 11, 2SR- and 2RS-2-amino-2-(1SR,2SR-2-carboxycyclopropan-1-yl)hexanoic acid], the IC50 stood at 1400 nM.

Consider `CCCCCC(N)(C(=O)O)C1CC1C(=O)O` (stereo not drawn) [Example 12, 2SR- and 2RS-2-amino-2-(1SR,2SR-2-carboxycyclopropan-1-yl)heptanoic acid], for which the 50% inhibitory concentration (IC50) was determined as 1800 nM.

The compound `NC(CCc1ccc(Cl)cc1)(C(=O)O)C1CC1C(=O)O` (stereo not drawn) [Example 25, 2SR- and 2RS-2-amino-2-(1SR, 2SR-2-carboxycyclopropan-1-yl)-4-(4-chlorophenyl)butanoic acid] showed an IC50 of 410 nM.

As to `COc1ccccc1CCC(N)(C(=O)O)C1CC1C(=O)O` (stereo not drawn) [Example 26, 2SR- and 2RS-2-amino-2-(1SR,2SR-2-carboxycyclopropan-1-yl) -4-(2-methoxyphenyl)butanoic acid], the half-maximal inhibitory concentration (IC50) is 170 nM.

`COc1cccc(CCC(N)(C(=O)O)C2CC2C(=O)O)c1` (stereo not drawn) [Example 27, 2SR- and 2RS-2-amino-2-(1SR,2SR-2-carboxycyclopropan-1-yl) -4-(3-methoxyphenyl)butanoic acid] gave an IC50 of 42 nM.

`COc1ccc(CCC(N)(C(=O)O)C2CC2C(=O)O)cc1` (stereo not drawn) [Example 28, 2SR- and 2RS-2-amino-2-(1SR,2SR-2-carboxycyclopropan-1-yl)-4-(4-methoxyphenyl)butanoic acid] showed an IC50 of 1400 nM.

For the compound `NC(CCc1ccccc1O)(C(=O)O)C1CC1C(=O)O` (stereo not drawn) [Example 29, 2SR- and 2RS-2-amino-2-(1SR,2SR-2-carboxycyclopropan-1-yl)-4-(2-hydroxyphenyl)butanoic acid], the IC50 stood at 100 nM.

For `NC(CCc1cccc(O)c1)(C(=O)O)C1CC1C(=O)O` (stereo not drawn) [Example 30, 2SR- and 2RS-2-amino-2-(1SR,2SR-2-carboxycyclopropan-1-yl)-4-(3-hydroxyphenyl)butanoic acid], the IC50 stood at 80 nM.

Consider `NC(CCc1ccc(O)cc1)(C(=O)O)C1CC1C(=O)O` (stereo not drawn) [Example 31, 2SR- and 2RS-2-amino-2-(1SR,2SR-2-carboxycyclopropan-1-yl)-4-(4-hydroxyphenyl)butanoic acid], for which the IC50 came out at 300 nM.

`COc1ccc(OC)c(CCC(N)(C(=O)O)C2CC2C(=O)O)c1` (stereo not drawn) [Example 32, 2SR- and 2RS-2-amino-2-(1SR,2SR-2-carboxycyclopropan-1-yl)-4-(2,5-dimethoxyphenyl)butanoic acid] gave a half-maximal inhibitory concentration (IC50) of 170 nM.

In turn, `COc1ccc(CCC(N)(C(=O)O)C2CC2C(=O)O)cc1OC` (stereo not drawn) [Example 33, 2SR- and 2RS-2-amino-2-(1SR,2SR-2-carboxycyclopropan-1-yl)-4-(3,4-dimethoxyphenyl)butanoic acid] yielded an IC50 of 460 nM.

For the compound `CC(CC(N)(C(=O)O)C1CC1C(=O)O)c1ccccc1` (stereo not drawn) [Example 34, 2SR,5SR-, 2SR,5RS-, 2RS,5SR- and 2RS,5RS-2-amino-2-(1SR,2SR-2-carboxycyclopropan-1-yl)-4-methyl-4-phenylbutanoic acid], the IC50 stood at 120 nM.

On to `NC(CCC12CC3CC(CC(C3)C1)C2)(C(=O)O)C1CC1C(=O)O` (centres unmarked) [Example 36], for which the IC50 was 200 nM.

The compound `NC(CCc1cccc(C(F)(F)F)c1)(C(=O)O)C1CC1C(=O)O` (stereo not drawn) [Example 37, 2SR- and 2RS-2-amino-2-(1SR,2SR-2-carboxycyclopropan-1-yl)-4-(3-(trifluoromethyl)phenyl)butanoic acid] had a concentration for half-maximal inhibition (IC50) of 64 nM.

`NC(CCc1cccc(Br)c1)(C(=O)O)C1CC1C(=O)O` (stereo not drawn) [Example 38, 2SR- and 2RS-2-amino-2-(1SR,2SR-2-carboxycyclopropan-1-yl)-4-(3-bromophenyl)butanoic acid] came in with an IC50 of 55 nM.

`NC(COc1ccccc1)(C(=O)O)C1CC1C(=O)O` (stereo not drawn) [Example 39, 2SR- and 2RS-2-amino-2-(1SR,2SR-2-carboxycyclopropan-1-yl)-3-phenoxypropanoic acid]: the IC50 turned out to be 11200 nM.

In turn, `NC(CC1CCC1)(C(=O)O)C1CC1C(=O)O` (stereo not drawn) [Example 40, 2SR- and 2RS-2-amino-2-(1SR,2SR-2-carboxycyclopropan-1-yl)-3-cyclobutylpropanoic acid] came in with an IC50 of 29500 nM.
